According to US4698350A, “1-ethyl-6-fluoro-1,4-dihydro- 7-(2,6-dimethyl-4-pyridinyl)-4-oxo-3-quinolinecarboxylic acid and antibacterial use thereof” (Sterling Drug Inc., priority 1984, dated 1987):

Legend:
Assay in all cases: In vitro antibacterial activity
Assay type in all cases: cell-based
[1] = test system: S. pyogenes and S. pneumoniae
Protocol: (§1) Win 52,522 and Win 35,439 were solubilized in 0.1 ml of 0.5 N NaOH/mg of compound and diluted in sterile distilled water to 160 mcg/ml. Vancomycin and methicillin were solubilized in sterile distilled water to 1250 mcg/ml of base compound. The stock solutions were sterilized by filtration through membrane filters with a 0.45 μm pore size.
(§2) The bacterial cultures listed in Table I (hereinbelow) were grown overnight at 37° C. in MHB for all cultures except the Streptococcus strains. These were grown in BHI+10% NHS. The overnight broth cultures were adjusted to an optical density of 0.10 (650 nm, B L Spectronic 20) in sterile distilled water and subsequently diluted to 6.7×10^6 cells/ml in MHB or BHI+1% NHS.
(§3) Serial two-fold dilutions of the compound solutions were prepared in MHB (or in BHI+1% NHS for tests with Streptococci) and dispensed into 96-well microtiter trays in a volume of 0.1 ml/well using a Sandy Springs (Bellco Glass Co.) dispenser. The trays were then inoculated with 0.0015 ml of a suspension containing 6.7×10^6 cells/ml of the appropriate inoculum using a MIC-2000 inoculator (Dynatech Corp.) resulting in a final inoculum of approximately 1×10^4 cells/well or 1×10^5 cells/ml. The trays were incubated at 37° C. for 18-20 hours and the minimal inhibitory concentration (MIC), defined as the lowest concentration of compound to inhibit visible bacterial growth, was recorded.
(§4) After the MIC values were recorded, the contents in the microtiter trays were thoroughly mixed on a Bellco Mini-orbital Shaker (Bellco Glass Co.) for 3 min. at a setting of 8. A portion (0.0015 ml) from each well was then transferred via an MIC-2000 inoculator to plates containing MHA or BHI agar+10% NHS. The plates were incubated at 37° C. for 18-20 hrs. The minimal bactericidal concentration (MBC), defined as the lowest concentration of compound that prevented the formation of a recognizable colony on the agar surface, was recorded.

[2] = test system: all 39 bacterial test strains
Protocol: as §1, §2, §3, §4

[3] = test system: S. faecalis; conditions: all 4 strains of S. faecalis
Protocol: as §1, §2, §3, §4

[4] = test system: S. pneumoniae; conditions: one strain of S. pneumoniae
Protocol: as §1, §2, §3, §4

[5] = test system: S. pyogenes; conditions: 3 strains of S. pyogenes
Protocol: as §1, §2, §3, §4

## CCn1cc(C(=O)O)c(=O)c2cc(F)c(-c3cc(C)nc(C)c3)cc21 [Win 52,522, 1-ethyl-6-fluoro-1,4-dihydro-7-(2,6-dimethyl-4-pyridinyl)-4-oxo-3-quinolinecarboxylic acid]
[1]
  times less potent than methicillin: 2-8 times
[2]; all Gram-positive and Gram-negative test strains
  MBC/MIC: ≤ 4
[2]; all test strains
  bactericidal / bacteriostatic: bactericidal

## CN[C@H](CC(C)C)C(=O)N[C@H]1C(=O)N[C@@H](CC(N)=O)C(=O)N[C@H]2C(=O)N[C@H]3C(=O)N[C@H](C(=O)N[C@H](C(=O)O)c4cc(O)cc(O)c4-c4cc3ccc4O)[C@H](O)c3ccc(c(Cl)c3)Oc3cc2cc(c3O[C@@H]2O[C@H](CO)[C@@H](O)[C@H](O)[C@H]2O[C@H]2C[C@](C)(N)[C@H](O)[C@H](C)O2)Oc2ccc(cc2Cl)[C@H]1O [Vancomycin]
[3]
  bactericidal / bacteriostatic: bacteriostatic
[4]
  bactericidal / bacteriostatic: bacteriostatic

## CCn1cc(C(=O)O)c(=O)c2ccc(-c3cc(C)nc(C)c3)cc21 [Win 35,439, 1-ethyl-1,4-dihydro-7-(2,6-dimethyl-4-pyridinyl)-4-oxo-3-quinolinecarboxylic acid]
[5]
  bactericidal / bacteriostatic: bacteriostatic
